SMILES strings stand for the structures. “And” between values parts separate entries of the source, which are not always exact repeats. Identical values can stand only once. Inconclusive results and toxic doses are left out. Peptide text beside a SMILES is read from it. * marks the point of attachment. Cbz = O=C(OCc1ccccc1)*; OtBu = CC(C)(C)O*

The test system of this test is P388 leukemia ip, CD2F1 mice, survival T/C. Put plainly: NCI In Vivo Anticancer Drug Screen. Data for tumor model P388 Leukemia (intraperitoneal) in CD2F1 (CDF1) mice. The following applies: endpoint: median survival time, higher = longer survival. The method, boiled down: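 Mice carrying the transplanted tumor received test compound or vehicle. Survival was recorded in each group, and the value is the treated-group measurement divided by that of the vehicle-treated control group.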

[1] abbreviates: dose: 50.0 mg/kg/injection, schedule: Q01DX005 (ip), vehicle: saline with Tween-80.
Where [2] appears, read: dose: 100.0 mg/kg/injection, schedule: Q01DX005 (ip), vehicle: saline with Tween-80.
[3] abbreviates: dose: 200.0 mg/kg/injection, schedule: Q01DX005 (ip), vehicle: saline with Tween-80.
Setting [4] is: dose: 50.0 mg/kg/injection, schedule: Q01DX009 (ip), vehicle: saline.
The mark [5] stands for this setting: dose: 12.5 mg/kg/injection, schedule: Q01DX009 (ip), vehicle: saline with Tween-80.
Where [6] appears, read: dose: 25.0 mg/kg/injection, schedule: Q01DX009 (ip), vehicle: saline with Tween-80.
Setting [7] is: dose: 100.0 mg/kg/injection, schedule: Q01DX009 (ip), vehicle: saline.
Where [8] appears, read: dose: 200.0 mg/kg/injection, schedule: Q01DX009 (ip), vehicle: saline.
The mark [9] stands for this setting: dose: 50.0 mg/kg/injection, schedule: Q01DX009 (ip), vehicle: saline with Tween-80.
The mark [10] stands for this setting: dose: 100.0 mg/kg/injection, schedule: Q01DX009 (ip), vehicle: saline with Tween-80.

For the compound `Cn1c(Cl)c(/C=N\Nc2cccc([N+](=O)[O-])c2)c2ccccc21`, the T/C (dose: 50.0 mg/kg/injection, schedule: Q01DX001 (ip), vehicle: Klucel (hydroxypropylcellulose) (HPC)) is 92 % of control; the T/C (dose: 100.0 mg/kg/injection, schedule: Q01DX001 (ip), vehicle: Klucel (hydroxypropylcellulose) (HPC)) is 90 % of control; the T/C (dose: 200.0 mg/kg/injection, schedule: Q01DX001 (ip), vehicle: Klucel (hydroxypropylcellulose) (HPC)) is 92 % of control.

As to `CC(C)CC(NC(=O)C(Cc1ccccc1)NC(=O)C1CCCN1C(=O)OCc1ccccc1)C(=O)OC(C)(C)C` (stereo not drawn) (Cbz-Pro-Phe-Leu-OtBu; configuration not given here), the T/C is 100 % of control under setting [1], 100 % of control under setting [2] and 91 % of control under setting [3].

In the case of `COc1ccc(C2(c3ccc(OC)cc3)c3ccccc3C(=O)c3ccc(OC)cc32)cc1`, the T/C is 98 % of control under setting [1], 100 % of control under setting [2] and 96 % of control under setting [3].

As to `CN(C)CCC(=O)/C=C\c1ccccc1`, the T/C reads like this: (dose: 25.0 mg/kg/injection, schedule: Q01DX009 (ip), vehicle: saline) 107 % of control; under setting [4], 108 % of control.

For `COC1(OC)C(Cl)=C(Cl)C(Cl)=C1Cl`, the T/C by setting is: (dose: 6.25 mg/kg/injection, schedule: Q01DX009 (ip), vehicle: saline with Tween-80) 95 % of control; under setting [5], 118 % of control; under setting [6], 113 % of control.

In the case of `C=C(C)C1NC(=O)C(C(O)c2cc(O)c(O)c(Cl)c2)N(C)C(=O)/C(=C/C(=O)O)NC(=O)/C(=C(\C)CC)NC(=O)C2C=CCN2C(=O)C(C(C)(O)CC)NC1=O` (stereo not drawn), the T/C (dose: 0.65 mg/kg/injection, schedule: Q01DX005 (ip), vehicle: Klucel (hydroxypropylcellulose) (HPC)) was 88 % of control; the T/C (dose: 1.25 mg/kg/injection, schedule: Q01DX005 (ip), vehicle: Klucel (hydroxypropylcellulose) (HPC)) is 95 % of control; the T/C (dose: 2.5 mg/kg/injection, schedule: Q01DX005 (ip), vehicle: Klucel (hydroxypropylcellulose) (HPC)) is 91 % of control.

Regarding `CC(=O)CC(=O)N(C)C`, the T/C reads like this: under setting [4], 100 % of control; under setting [7], 98 % of control; under setting [8], 99 % of control; (dose: 400.0 mg/kg/injection, schedule: Q01DX009 (ip), vehicle: saline) 99 % of control.

With `COc1ccc(-c2cc(-c3ccccc3)[nH]c2-c2ccccc2)cc1`, the T/C runs as follows: (dose: 100.0 mg/kg/injection, schedule: Q04DX002 (ip), vehicle: saline) 98 % of control; (dose: 200.0 mg/kg/injection, schedule: Q04DX002 (ip), vehicle: saline) 105 % of control; (dose: 400.0 mg/kg/injection, schedule: Q04DX002 (ip), vehicle: saline) 100 % of control.

Take `CN(C)c1ccc(N=C2C=CC(=[N+](C)C)C=C2)cc1`: the T/C is, setting by setting: (dose: 3.13 mg/kg/injection, schedule: Q01DX009 (ip), vehicle: Klucel (hydroxypropylcellulose) (HPC)) 90 % of control; (dose: 6.25 mg/kg/injection, schedule: Q01DX009 (ip), vehicle: Klucel (hydroxypropylcellulose) (HPC)) 93 % of control; (dose: 12.5 mg/kg/injection, schedule: Q01DX009 (ip), vehicle: Klucel (hydroxypropylcellulose) (HPC)) 101 % of control; (dose: 25.0 mg/kg/injection, schedule: Q01DX009 (ip), vehicle: Klucel (hydroxypropylcellulose) (HPC)) 114 % of control.

As to `Cc1csc2ccccc12`, the T/C runs as follows: under setting [9], 102 % of control; (dose: 60.0 mg/kg/injection, schedule: Q01DX005 (ip), vehicle: saline with Tween-80) 101 % of control; under setting [10], 119 % of control; (dose: 120.0 mg/kg/injection, schedule: Q01DX005 (ip), vehicle: saline with Tween-80) 100 % of control; (dose: 200.0 mg/kg/injection, schedule: Q01DX009 (ip), vehicle: saline with Tween-80) 92 % of control; (dose: 240.0 mg/kg/injection, schedule: Q01DX005 (ip), vehicle: saline with Tween-80) 100 % of control.

Regarding `O=NN(CCCl)C(=O)Nc1cccc(O)c1`, the T/C is, setting by setting: (dose: 66.0 mg/kg/injection, schedule: Q04DX003 (ip), vehicle: Klucel (hydroxypropylcellulose) (HPC)) 220 % of control; (dose: 100.0 mg/kg/injection, schedule: Q04DX003 (ip), vehicle: Klucel (hydroxypropylcellulose) (HPC)) 240 % of control.

With `O=C1C(Cl)=C(Nc2ccc(C(=O)Nc3ccc4cc(S(=O)(=O)O)cc(S(=O)(=O)O)c4c3)cc2)C(=O)C(Cl)=C1Nc1ccc(C(=O)Nc2ccc3cc(S(=O)(=O)O)cc(S(=O)(=O)O)c3c2)cc1`, the T/C was 110 % of control under setting [4], 89 % of control under setting [7] and 103 % of control under setting [8].

Turning to `CSc1ncnc2sc(NN)nc12`, the T/C (dose: 100.0 mg/kg/injection, schedule: Q01DX001 (ip), vehicle: distilled water + alcohol) was 94 % of control; the T/C (dose: 200.0 mg/kg/injection, schedule: Q01DX001 (ip), vehicle: distilled water + alcohol) was 94 % of control; the T/C (dose: 400.0 mg/kg/injection, schedule: Q01DX001 (ip), vehicle: distilled water + alcohol) was 102 % of control.

With `CC(O)C(C)C(N)C(=O)O` (stereo not drawn), the T/C runs as follows: (dose: 8.25 mg/kg/injection, schedule: Q01DX005 (ip), vehicle: water) 100 % of control; (dose: 16.5 mg/kg/injection, schedule: Q01DX005 (ip), vehicle: water) 98 % of control; (dose: 33.0 mg/kg/injection, schedule: Q01DX005 (ip), vehicle: water) 100 % of control; (dose: 66.0 mg/kg/injection, schedule: Q01DX005 (ip), vehicle: water) 99 % of control.

`O=C(NC(=S)c1ccc(Br)cc1)NS(=O)(=O)c1ccc(Cl)cc1`: the T/C (dose: 100.0 mg/kg/injection, schedule: Q01DX001 (ip), vehicle: saline with Tween-80) was 96 % of control; the T/C (dose: 200.0 mg/kg/injection, schedule: Q01DX001 (ip), vehicle: saline with Tween-80) is 92 % of control; the T/C (dose: 400.0 mg/kg/injection, schedule: Q01DX001 (ip), vehicle: saline with Tween-80) was 102 % of control.

As for `CN=C(N)N/N=C(\C)c1ccc(/C(C)=N/NC(N)=NC)cc1`, the T/C (dose: 25.0 mg/kg/injection, schedule: Q04DX002 (ip), vehicle: saline with Tween-80) was 112 % of control.

Take `COc1cc2cc3c4ccc(OC)c(OC)c4cc[n+]3c(C)c2cc1OC` (tested in a mixture with another compound): the T/C reads like this: under setting [5], 150 % of control; under setting [6], 164 % of control; under setting [9], 174 % of control; under setting [10], 209 % of control.

Turning to `CN(C)CCOc1ccc2c(c1)C(=O)/C(=C\c1ncc([N+](=O)[O-])n1C)C2`, the T/C is 113 % of control under setting [5]; 123 % of control and 94 % of control under setting [6]; 121 % of control under setting [9]; 123 % of control under setting [10].

These data come from PubChem BioAssay AID330 (DTP/NCI, 2004).
